Measurements from patent publication US7994140B2, “Classes of compounds that interact with GPCRs” (Alchemia Limited, priority 2002, dated 2011).

Target: T1, MC4 (Homo sapiens, UniProt P32245)
T1 construct: purchased Perkin Elmer BioSignal; host or cells: HEK 293
Assay: GPCR radioligand binding (RLB) assay, melanocortin MC4, [125I]NDP-αMSH
Conditions: 4.0 Micromolar; Example Library 11
Method in brief: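 Competition binding against radioligand ([125I]NDP-αMSH for MC4, [125I]SST-14 for SST5) on membranes of HEK 293 cells carrying the human receptor; buffer and incubation time optimized per receptor. Filtration through 0.5% PEI-treated glass fiber, washing, then scintillation counting.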

T1 sequence (P32245 whole entry): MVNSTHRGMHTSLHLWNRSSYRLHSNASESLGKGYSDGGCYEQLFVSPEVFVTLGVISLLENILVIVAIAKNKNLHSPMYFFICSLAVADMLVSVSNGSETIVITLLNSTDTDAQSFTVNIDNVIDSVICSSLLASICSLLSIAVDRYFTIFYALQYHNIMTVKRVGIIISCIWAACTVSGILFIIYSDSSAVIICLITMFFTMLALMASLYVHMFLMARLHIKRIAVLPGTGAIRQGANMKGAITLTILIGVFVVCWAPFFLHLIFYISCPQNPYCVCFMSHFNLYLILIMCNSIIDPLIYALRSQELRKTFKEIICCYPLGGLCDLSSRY

Row | SMILES | MC4 Inhibition at 4.0 Micromolar
1 | NCCC(=O)NC1C(OCc2ccccc2)OC(COCc2ccc(Cl)cc2)C(O)C1OCc1ccc(Cl)cc1 (stereo not drawn) [Compound 399] | + (Indicates inhibition greater than . . . 50%)
2 | NCCC(=O)NC1C(OCc2ccccc2)OC(COCc2ccc3ccccc3c2)C(O)C1OCc1ccc2ccccc2c1 (stereo not drawn) [Compound 400] | + (Indicates inhibition greater than . . . 50%)
3 | NCCC(=O)NC1C(OCc2ccccc2)OC(COCc2ccccc2)C(O)C1OCc1ccc2ccccc2c1 (stereo not drawn) [Compound 401] | + (Indicates inhibition greater than . . . 50%)
4 | NCCC(=O)NC1C(OCc2ccccc2)OC(COCc2ccc(Cl)cc2)C(O)C1OCc1ccc2ccccc2c1 (stereo not drawn) [Compound 402] | + (Indicates inhibition greater than . . . 50%)
5 | NCCC(=O)NC1C(OCc2ccccc2)OC(COCc2ccc3ccccc3c2)C(O)C1OCc1ccccc1 (stereo not drawn) [Compound 403] | + (Indicates inhibition greater than . . . 50%)
6 | NCCC(=O)NC1C(OCc2ccccc2)OC(COCc2ccccc2)C(O)C1OCc1ccccc1 (stereo not drawn) [Compound 404] | + (Indicates inhibition greater than . . . 50%)
7 | NCCC(=O)NC1C(OCc2ccccc2)OC(COCc2ccc(Cl)cc2)C(O)C1OCc1ccccc1 (stereo not drawn) [Compound 405] | + (Indicates inhibition greater than . . . 50%)
8 | NCCCC(=O)NC1C(OCc2ccccc2)OC(COCc2ccc3ccccc3c2)C(O)C1OCc1ccc(Cl)cc1 (stereo not drawn) [Compound 406] | + (Indicates inhibition greater than . . . 50%)
9 | NCCCC(=O)NC1C(OCc2ccccc2)OC(COCc2ccc(Cl)cc2)C(O)C1OCc1ccc(Cl)cc1 (stereo not drawn) [Compound 407] | + (Indicates inhibition greater than . . . 50%)
10 | NCCCC(=O)NC1C(OCc2ccccc2)OC(COCc2ccc3ccccc3c2)C(O)C1OCc1ccc2ccccc2c1 (stereo not drawn) [Compound 408] | + (Indicates inhibition greater than . . . 50%)
11 | NCCCC(=O)NC1C(OCc2ccccc2)OC(COCc2ccccc2)C(O)C1OCc1ccc2ccccc2c1 (stereo not drawn) [Compound 409] | + (Indicates inhibition greater than . . . 50%)
12 | NCCCC(=O)NC1C(OCc2ccccc2)OC(COCc2ccc(Cl)cc2)C(O)C1OCc1ccc2ccccc2c1 (stereo not drawn) [Compound 410] | + (Indicates inhibition greater than . . . 50%)
13 | NCCCC(=O)NC1C(OCc2ccccc2)OC(COCc2ccc3ccccc3c2)C(O)C1OCc1ccccc1 (stereo not drawn) [Compound 411] | + (Indicates inhibition greater than . . . 50%)
14 | NCCCC(=O)NC1C(OCc2ccccc2)OC(COCc2ccc(Cl)cc2)C(O)C1OCc1ccccc1 (stereo not drawn) [Compound 412] | + (Indicates inhibition greater than . . . 50%)
15 | NCCC(=O)NC1C(OCc2ccc3ccccc3c2)OC(COCc2ccc3ccccc3c2)C(O)C1OCc1ccc(Cl)cc1 (stereo not drawn) [Compound 413] | + (Indicates inhibition greater than . . . 50%)
16 | NCCC(=O)NC1C(OCc2ccc3ccccc3c2)OC(COCc2ccccc2)C(O)C1OCc1ccc(Cl)cc1 (stereo not drawn) [Compound 414] | + (Indicates inhibition greater than . . . 50%)

Row | SMILES | MC4 Inhibition at 4.0 Micromolar
17 | NCCC(=O)NC1C(OCc2ccc3ccccc3c2)OC(COCc2ccc(Cl)cc2)C(O)C1OCc1ccc(Cl)cc1 (stereo not drawn) [Compound 415] | + (Indicates inhibition greater than . . . 50%)
18 | NCCC(=O)NC1C(OCc2ccc3ccccc3c2)OC(COCc2ccc3ccccc3c2)C(O)C1OCc1ccc2ccccc2c1 (stereo not drawn) [Compound 416] | + (Indicates inhibition greater than . . . 50%)
19 | NCCC(=O)NC1C(OCc2ccc3ccccc3c2)OC(COCc2ccccc2)C(O)C1OCc1ccc2ccccc2c1 (stereo not drawn) [Compound 417] | + (Indicates inhibition greater than . . . 50%)
20 | NCCC(=O)NC1C(OCc2ccc3ccccc3c2)OC(COCc2ccc(Cl)cc2)C(O)C1OCc1ccc2ccccc2c1 (stereo not drawn) [Compound 418] | + (Indicates inhibition greater than . . . 50%)
21 | NCCC(=O)NC1C(OCc2ccc3ccccc3c2)OC(COCc2ccc3ccccc3c2)C(O)C1OCc1ccccc1 (stereo not drawn) [Compound 419] | + (Indicates inhibition greater than . . . 50%)
22 | NCCC(=O)NC1C(OCc2ccc3ccccc3c2)OC(COCc2ccccc2)C(O)C1OCc1ccccc1 (stereo not drawn) [Compound 420] | + (Indicates inhibition greater than . . . 50%)
23 | NCCC(=O)NC1C(OCc2ccc3ccccc3c2)OC(COCc2ccc(Cl)cc2)C(O)C1OCc1ccccc1 (stereo not drawn) [Compound 421] | + (Indicates inhibition greater than . . . 50%)
24 | NCCCC(=O)NC1C(OCc2ccc3ccccc3c2)OC(COCc2ccc3ccccc3c2)C(O)C1OCc1ccc(Cl)cc1 (stereo not drawn) [Compound 422] | + (Indicates inhibition greater than . . . 50%)
25 | NCCCC(=O)NC1C(OCc2ccc3ccccc3c2)OC(COCc2ccccc2)C(O)C1OCc1ccc(Cl)cc1 (stereo not drawn) [Compound 423] | + (Indicates inhibition greater than . . . 50%)
26 | NCCCC(=O)NC1C(OCc2ccc3ccccc3c2)OC(COCc2ccc(Cl)cc2)C(O)C1OCc1ccc(Cl)cc1 (stereo not drawn) [Compound 424] | + (Indicates inhibition greater than . . . 50%)
27 | NCCCC(=O)NC1C(OCc2ccc3ccccc3c2)OC(COCc2ccc3ccccc3c2)C(O)C1OCc1ccc2ccccc2c1 (stereo not drawn) [Compound 425] | + (Indicates inhibition greater than . . . 50%)
28 | NCCCC(=O)NC1C(OCc2ccc3ccccc3c2)OC(COCc2ccccc2)C(O)C1OCc1ccc2ccccc2c1 (stereo not drawn) [Compound 426] | + (Indicates inhibition greater than . . . 50%)
29 | NCCCC(=O)NC1C(OCc2ccc3ccccc3c2)OC(COCc2ccc(Cl)cc2)C(O)C1OCc1ccc2ccccc2c1 (stereo not drawn) [Compound 427] | + (Indicates inhibition greater than . . . 50%)
30 | NCCCC(=O)NC1C(OCc2ccc3ccccc3c2)OC(COCc2ccc3ccccc3c2)C(O)C1OCc1ccccc1 (stereo not drawn) [Compound 428] | + (Indicates inhibition greater than . . . 50%)
31 | NCCCC(=O)NC1C(OCc2ccc3ccccc3c2)OC(COCc2ccccc2)C(O)C1OCc1ccccc1 (stereo not drawn) [Compound 429] | + (Indicates inhibition greater than . . . 50%)
32 | NCCCC(=O)NC1C(OCc2ccc3ccccc3c2)OC(COCc2ccc(Cl)cc2)C(O)C1OCc1ccccc1 (stereo not drawn) [Compound 430] | + (Indicates inhibition greater than . . . 50%)

Same assay, conditions: 4.0 Micromolar; Example Library 12

Row | SMILES | MC4 Inhibition at 4.0 Micromolar
33 | N=C(N)NCC(=O)N[C@H]1C(OCc2ccccc2)O[C@H](COCc2ccc3ccccc3c2)[C@@H](O)[C@@H]1OCc1ccc(Cl)cc1 (stereo partly drawn) [Compound 431] | + (Indicates inhibition greater than . . . 50%)
34 | N=C(N)NCC(=O)N[C@H]1C(OCc2ccccc2)O[C@H](COCc2ccc3ccccc3c2)[C@@H](O)[C@@H]1OCc1ccc(Cl)cc1 (stereo partly drawn) [Compound 432] | + (Indicates inhibition greater than . . . 50%)
35 | N=C(N)NCC(=O)N[C@H]1C(OCc2ccccc2)O[C@H](COCc2ccccc2)[C@@H](O)[C@@H]1OCc1ccc(Cl)cc1 (stereo partly drawn) [Compound 433] | + (Indicates inhibition greater than . . . 50%)
36 | N=C(N)NCC(=O)N[C@H]1C(OCc2ccccc2)O[C@H](COCc2ccccc2)[C@@H](O)[C@@H]1OCc1ccc(Cl)cc1 (stereo partly drawn) [Compound 434] | + (Indicates inhibition greater than . . . 50%)
37 | N=C(N)NCC(=O)N[C@H]1C(OCc2ccccc2)O[C@H](COCc2ccc(Cl)cc2)[C@@H](O)[C@@H]1OCc1ccc(Cl)cc1 (stereo partly drawn) [Compound 435] | + (Indicates inhibition greater than . . . 50%)
38 | N=C(N)NCC(=O)N[C@H]1C(OCc2ccccc2)O[C@H](COCc2ccc3ccccc3c2)[C@@H](O)[C@@H]1OCc1ccc2ccccc2c1 (stereo partly drawn) [Compound 436] | + (Indicates inhibition greater than . . . 50%)
39 | N=C(N)NCC(=O)N[C@H]1C(OCc2ccccc2)O[C@H](COCc2ccc3ccccc3c2)[C@@H](O)[C@@H]1OCc1ccc2ccccc2c1 (stereo partly drawn) [Compound 437] | + (Indicates inhibition greater than . . . 50%)
40 | N=C(N)NCC(=O)N[C@H]1C(OCc2ccccc2)O[C@H](COCc2ccccc2)[C@@H](O)[C@@H]1OCc1ccc2ccccc2c1 (stereo partly drawn) [Compound 438] | + (Indicates inhibition greater than . . . 50%)
41 | N=C(N)NCC(=O)N[C@H]1C(OCc2ccccc2)O[C@H](COCc2ccc(Cl)cc2)[C@@H](O)[C@@H]1OCc1ccc2ccccc2c1 (stereo partly drawn) [Compound 439] | + (Indicates inhibition greater than . . . 50%)
42 | N=C(N)NCC(=O)N[C@H]1C(OCc2ccccc2)O[C@H](COCc2ccc(Cl)cc2)[C@@H](O)[C@@H]1OCc1ccc2ccccc2c1 (stereo partly drawn) [Compound 440] | + (Indicates inhibition greater than . . . 50%)
43 | N=C(N)NCC(=O)N[C@H]1C(OCc2ccccc2)O[C@H](COCc2ccc3ccccc3c2)[C@@H](O)[C@@H]1OCc1ccc(-c2ccccc2)cc1 (stereo partly drawn) [Compound 441] | + (Indicates inhibition greater than . . . 50%)
44 | N=C(N)NCC(=O)N[C@H]1C(OCc2ccccc2)O[C@H](COCc2ccccc2)[C@@H](O)[C@@H]1OCc1ccc(-c2ccccc2)cc1 (stereo partly drawn) [Compound 442] | + (Indicates inhibition greater than . . . 50%)
45 | N=C(N)NCC(=O)N[C@H]1C(OCc2ccccc2)O[C@H](COCc2ccccc2)[C@@H](O)[C@@H]1OCc1ccc(-c2ccccc2)cc1 (stereo partly drawn) [Compound 443] | + (Indicates inhibition greater than . . . 50%)
46 | N=C(N)NCC(=O)N[C@H]1C(OCc2ccccc2)O[C@H](COCc2ccc(Cl)cc2)[C@@H](O)[C@@H]1OCc1ccc(-c2ccccc2)cc1 (stereo partly drawn) [Compound 444] | + (Indicates inhibition greater than . . . 50%)
47 | N=C(N)NCC(=O)N[C@H]1C(OCc2ccccc2)O[C@H](COCc2ccc(Cl)cc2)[C@@H](O)[C@@H]1OCc1ccc(-c2ccccc2)cc1 (stereo partly drawn) [Compound 445] | + (Indicates inhibition greater than . . . 50%)
48 | N=C(N)NCCC(=O)N[C@H]1C(OCc2ccccc2)O[C@H](COCc2ccc3ccccc3c2)[C@@H](O)[C@@H]1OCc1ccc(Cl)cc1 (stereo partly drawn) [Compound 446] | + (Indicates inhibition greater than . . . 50%)
